Blank lines part the entries; values can stand above or below the compound they belong to. The source made the active and inactive calls. The calls are words filed in the database; no cut-off is given here.
Tests used:
[1] = test system: Jurkat; test: Cytotoxicity against human Jurkat cells assessed as reduction in cell viability at 50 and 100 uM after 24 hrs by MTT assay; assay type: functional, cell-based
[2] = test system: Jurkat; test: Cytotoxicity against human Jurkat cells assessed as reduction in cell viability after 24 hrs by MTT assay; assay type: functional, cell-based
[3] = test system: SK-MEL-147; test: Cytotoxicity against human SK-MEL-147 cells assessed as reduction in cell viability at 50 and 100 uM after 24 hrs by MTT assay; assay type: functional, cell-based
[4] = test system: SK-MEL-147; test: Cytotoxicity against human SK-MEL-147 cells assessed as reduction in cell viability after 24 hrs by MTT assay; assay type: functional, cell-based; conditions: SK-MEL-147, 24 h
[5] = Inhibition of Leishmania mexicana rCPB3.0 H84Y mutant using Z-FR-AMC as substrate by spectrofluorometric analysis
[6] = Inhibition of Leishmania mexicana rCPB3.0 using Z-FR-AMC as substrate by spectrofluorometric analysis
[7] = test system: SK-MEL-147; test: Induction of apoptosis in human SK-MEL-147 cells assessed as increase in reactive oxygen species generation by CM-H2DCFDA staining based flow cytometric analysis; assay type: functional, cell-based
[8] = target: Cathepsin B (Homo sapiens, UniProt P07858); test: Inhibition of cathepsin B (unknown origin) using Z-FR-AMC as substrate by spectrofluorometric analysis; conditions: read-out: IC50
[9] = test system: SK-MEL-147; test: Cytotoxicity against human SK-MEL-147 cells assessed as reduction in cell viability at EC50 concentration preincubated for 1 hr in presence of GSH measured after 24 hrs by MTT assay; assay type: functional, cell-based
[10] = test system: SK-MEL-147; test: Induction of apoptosis in human SK-MEL-147 cells assessed as late apoptotic cells at 20 uM after 24 hrs by Annexin V-FITC/propidium iodide staining based flow cytometry; assay type: functional, cell-based
[11] = test system: SK-MEL-147; test: Cytotoxicity against human SK-MEL-147 cells assessed as reduction in cell viability at EC50 concentration preincubated for 1 hr in presence of N-acetyl cysteine measured after 24 hrs by MTT assay; assay type: functional, cell-based
[12] = species: Rattus norvegicus; test: Induction of mitochondrial permeabilization in rat liver mitochondria assessed as mitochondrial transmembrane potential dissipation in presence of ADP by rhodamine-123 dye based spectrofluorometer analysis; assay type: functional
[13] = target: Procathepsin L (Homo sapiens, UniProt P07711); test: Inhibition of cathepsin L (unknown origin) using Z-FR-AMC as substrate by spectrofluorometric analysis; conditions: read-out: IC50
[14] = test system: SK-MEL-147; test: Induction of apoptosis in human SK-MEL-147 cells assessed as mitochondrial membrane potential dissipation after 24 hrs by TMRM staining based fluorescence microscopic method; assay type: functional, cell-based
[15] = test system: SK-MEL; test: Cytotoxicity against human SK-MEL-147 cells assessed as reduction in cell viability at EC50 concentration preincubated for 1 hr in presence of BAPTA measured after 24 hrs by MTT assay; assay type: functional, cell-based
[16] = species: Rattus norvegicus; test: Induction of mitochondrial permeabilization in rat liver mitochondria assessed as mitochondrial transmembrane potential dissipation in presence of DTT by rhodamine-123 dye based spectrofluorometer analysis; assay type: functional
[17] = species: Rattus norvegicus; test: Induction of mitochondrial permeabilization in rat liver mitochondria assessed as calcium efflux in presence of DTT by calcium green based spectrofluorometer analysis; assay type: functional
[18] = species: Rattus norvegicus; test: Induction of mitochondrial permeabilization in rat liver mitochondria assessed as mitochondrial transmembrane potential dissipation by rhodamine-123 dye based spectrofluorometer analysis; assay type: functional
[19] = species: Rattus norvegicus; test: Induction of mitochondrial permeabilization in rat liver mitochondria assessed as calcium efflux in presence of CsA by calcium green based spectrofluorometer analysis; assay type: functional
[20] = test system: SK-MEL-147; test: Induction of apoptosis in human SK-MEL-147 cells assessed as increase in BAX expression at 20 uM after 24 hrs by western blotting analysis; assay type: functional, cell-based
[21] = test system: SK-MEL-147; test: Induction of apoptosis in human SK-MEL-147 cells assessed as necrotic cells at 20 uM after 24 hrs by Annexin V-FITC/propidium iodide staining based flow cytometry; assay type: functional, cell-based
[22] = species: Rattus norvegicus; test: Induction of mitochondrial permeabilization in rat liver mitochondria assessed as calcium efflux by calcium green based spectrofluorometer analysis; assay type: functional
[23] = test system: SK-MEL; test: Cytotoxicity against human SK-MEL-147 cells assessed as reduction in cell viability at EC50 concentration preincubated for 1 hr in presence of EGTA measured after 24 hrs by MTT assay; assay type: functional, cell-based
[24] = species: Rattus norvegicus; test: Induction of mitochondrial permeabilization in rat liver mitochondria assessed as mitochondrial transmembrane potential dissipation in presence of CsA by rhodamine-123 dye based spectrofluorometer analysis; assay type: functional
[25] = test system: SK-MEL-147; test: Cytotoxicity against human SK-MEL-147 cells assessed as reduction in cell viability at EC50 concentration preincubated for 1 hr in presence of Boc-D-FMK measured after 24 hrs by MTT assay; assay type: functional, cell-based
[26] = test system: SK-MEL-147; test: Cytotoxicity against human SK-MEL-147 cells assessed as reduction in cell viability at EC50 concentration preincubated for 1 hr in presence of DTT measured after 24 hrs by MTT assay; assay type: functional, cell-based
[27] = test system: SK-MEL-147; test: Induction of apoptosis in human SK-MEL-147 cells assessed as early apoptotic cells at 20 uM after 24 hrs by Annexin V-FITC/propidium iodide staining based flow cytometry; assay type: functional, cell-based
[28] = test system: SK-MEL-147; test: Induction of apoptosis in human SK-MEL-147 cells assessed as effect on BCL-2 protein expression at 20 uM after 24 hrs by western blotting analysis; assay type: functional, cell-based
[29] = species: Rattus norvegicus; test: Induction of mitochondrial permeabilization in rat liver mitochondria assessed as calcium efflux in presence of ADP by calcium green based spectrofluorometer analysis; assay type: functional
[30] = test system: SK-MEL-147; test: Cytotoxicity against human SK-MEL-147 cells assessed as reduction in cell viability in presence of BCL2 inhibitor venetoclax; assay type: functional, cell-based
[31] = test system: SK-MEL-147; test: Induction of apoptosis in human SK-MEL-147 cells assessed mitochondrial permeabilization after 24 hrs by mitotracker green staining based microscopic analysis; assay type: functional, cell-based
[32] = test system: SK-MEL-147; test: Cytotoxicity against human SK-MEL-147 cells assessed as reduction in cell viability at EC50 concentration preincubated for 1 hr in presence of E-64 measured after 24 hrs by MTT assay; assay type: functional, cell-based
[33] = target: Cysteine proteinase B (Leishmania mexicana, UniProt P36400); test: Inhibition of Leishmania mexicana rCPB2.8 using Z-FR-AMC as substrate by spectrofluorometric analysis
Chain of Cysteine proteinase B (P36400 whole entry): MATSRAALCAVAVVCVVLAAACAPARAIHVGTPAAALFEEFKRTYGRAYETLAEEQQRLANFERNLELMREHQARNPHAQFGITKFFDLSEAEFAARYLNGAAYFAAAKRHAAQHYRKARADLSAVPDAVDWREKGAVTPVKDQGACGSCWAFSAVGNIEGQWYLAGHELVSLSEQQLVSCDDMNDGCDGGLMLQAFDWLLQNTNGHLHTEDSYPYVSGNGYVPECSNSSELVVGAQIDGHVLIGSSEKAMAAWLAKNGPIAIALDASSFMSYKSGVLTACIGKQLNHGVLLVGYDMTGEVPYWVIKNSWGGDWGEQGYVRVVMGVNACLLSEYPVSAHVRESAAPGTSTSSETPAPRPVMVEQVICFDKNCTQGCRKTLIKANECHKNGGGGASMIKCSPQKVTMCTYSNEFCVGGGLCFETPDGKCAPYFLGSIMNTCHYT

Chain of Procathepsin L (P07711 whole entry): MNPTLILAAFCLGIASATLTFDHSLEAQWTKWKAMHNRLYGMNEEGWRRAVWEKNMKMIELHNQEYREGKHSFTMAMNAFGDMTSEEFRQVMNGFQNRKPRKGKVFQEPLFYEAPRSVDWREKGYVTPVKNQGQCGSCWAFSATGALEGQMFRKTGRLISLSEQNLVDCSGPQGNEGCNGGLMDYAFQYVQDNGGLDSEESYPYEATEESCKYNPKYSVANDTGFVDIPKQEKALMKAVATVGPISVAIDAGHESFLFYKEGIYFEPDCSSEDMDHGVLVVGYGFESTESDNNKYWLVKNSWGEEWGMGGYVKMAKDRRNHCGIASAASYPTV

SMILES: CCOC(=O)c1cc([Se]c2ccccc2)c2cc(OC)ccc2n1
Activity [1]: Active
EC50 [2]: 102 µM
Activity [3]: Active
EC50 [4]: 33 µM

SMILES: CCOC(=O)c1cc([Se]c2ccc3cc(OC)ccc3c2)c2cc(Cl)ccc2n1
Activity [1]: Active
IC50 [5]: 7.25 µM
EC50 [2]: 29.2 µM
Activity [3]: Active
EC50 [4]: 16.2 µM
IC50 [6]: 6.35 µM

SMILES: CCOC(=O)c1cc([Se]c2ccc3cc(OC)ccc3c2)c2cc(OC)ccc2n1
Activity [1]: Active
IC50 [5]: 8.44 µM
EC50 [2]: 31.3 µM
Activity [3]: Active
EC50 [4]: 30.8 µM

SMILES: CCOC(=O)c1cc([Se]Cc2ccccc2)c2cc(Br)ccc2n1
Activity [1]: Active
EC50 [2]: 53.6 µM
Activity [3]: Active
EC50 [4]: 31.2 µM

SMILES: CCOC(=O)c1cc([Se]Cc2ccccc2)c2cc(Cl)ccc2n1
Activity [1]: Active
EC50 [2]: 88.5 µM
Activity [3]: Active
EC50 [4]: 84.5 µM

IC50 [8]: 6.86 µM
IC50 [13]: 3.69 µM
SMILES: CCCCC#Cc1cc(C(=O)OCC)nc2ccc(OC)cc12
Activity [7]: Active
Activity [9]: Active
Activity [10]: Active
Activity [11]: Active
Activity [12]: Active
Activity [14]: Active
Activity [15]: Active
Activity [16]: Active
Activity [17]: Active
Activity [18]: Active
Activity [19]: Active
Activity [20]: Active
Activity [21]: Active
Activity [1]: Active
Activity [22]: Active
Activity [23]: Active
Activity [24]: Active
Activity [25]: inactive
Activity [26]: Active
Activity [27]: Active
Activity [28]: inactive
Activity [29]: inactive
Activity [30]: Active
Activity [31]: Active
Activity [32]: inactive
EC50 [2]: 15.9 µM
Activity [3]: Active
EC50 [4]: 7.2 µM

SMILES: CCOC(=O)c1cc([Se]c2ccccc2C)c2cc(OC)ccc2n1
Activity [1]: Active
EC50 [2]: 14.9 µM
Activity [3]: Active
EC50 [4]: 38.9 µM

SMILES: CCOC(=O)c1cc([Se]c2ccc(OC)cc2)c2cc(OC)ccc2n1
Activity [1]: Active
EC50 [2]: 82.5 to 97.3 µM
Activity [3]: Active
EC50 [4]: 54.3 to 150 µM

SMILES: COc1ccc2nc(-c3c(C)cccc3C)cc([Se]c3ccccc3)c2c1
Activity [1]: Active
IC50 [5]: 20.4 µM
IC50 [33]: 12.9 µM
EC50 [2]: 26.9 µM
Activity [3]: Active
EC50 [4]: 37.3 µM
IC50 [6]: 7.44 µM

SMILES: CCOC(=O)c1cc([Se]Cc2ccccc2)c2cc(OC)ccc2n1
Activity [1]: Active
EC50 [2]: 20.8 µM
Activity [3]: Active
EC50 [4]: 40.7 µM

SMILES: CCOC(=O)c1cc([Te]c2ccccc2)c2cc(OC)ccc2n1
Activity [1]: Active
EC50 [2]: 77.4 µM
Activity [3]: Active
EC50 [4]: 128 µM

SMILES: COc1ccc2nc(-c3cccs3)cc([Se]c3ccccc3)c2c1
Activity [1]: Active
EC50 [2]: 99.8 µM
Activity [3]: Active
EC50 [4]: > 150 µM

Source: ChEMBL document CHEMBL4622851, “Cytotoxicity of 4-substituted quinoline derivatives: Anticancer and antileishmanial potential” (Bioorg Med Chem, 2020)
